Experimental data taken from US20070167631A1, “Novel herbicides” (priority 2003, published 2007).

tested on: Panicum; assay: Pre-emergence herbicidal action (Example B1); format: in vivo; details: 250 g/ha, after 4 weeks, rating scale 10=total damage, 0=no action
Protocol: (§1) Monocotyledonous and dicotyledonous test plants are sown in standard soil in pots or seed trays. Immediately after sowing, the test compounds, in the form of an aqueous suspension (prepared from a wettable powder (Example F3, b) according to WO 97/34485) or in the form of an emulsion (prepared from an emulsifiable concentrate (Example F1, c) according to WO 97/34485), are applied by spraying in a concentration of 250 g/ha. The test plants are then grown in a greenhouse under optimum conditions. After a test duration of 4 weeks, the test is evaluated in accordance with a scale of eleven ratings (10=total damage, 0=no action). Ratings of from 10 to 7 (especially from 10 to 8) indicate very good to good herbicidal action.

In order of falling “Pre-emergence action: Panicum” value:
1. COC(COc1nc(C(=O)C2=C(O)CCCC2=O)ccc1C(F)(F)F)OC [Compound 1.012]  10
2. O=C1CCCC(O)=C1C(=O)c1ccc(C(F)(F)F)c(N2CCOCC2)n1 [Compound 1.073]  10
3. CC(=O)N(C)c1nc(C(=O)C2=C(O)C(C)(C)C(=O)C(C)(C)C2=O)ccc1C(F)(F)F [Compound 2.088]  9
4. CN(C)c1nc(C(=O)C2=C(O)C(C)(C)C(=O)C(C)(C)C2=O)ccc1C(F)(F)F [Compound 2.059]  7

tested on: Digitaria; assay: Pre-emergence herbicidal action (Example B1); format: in vivo; details: 250 g/ha, after 4 weeks, rating scale 10=total damage, 0=no action
Protocol: as §1

In order of rising “Pre-emergence action: Digitaria” value:
1. CN(C)c1nc(C(=O)C2=C(O)C(C)(C)C(=O)C(C)(C)C2=O)ccc1C(F)(F)F [Compound 2.059]  7
2. COC(COc1nc(C(=O)C2=C(O)CCCC2=O)ccc1C(F)(F)F)OC [Compound 1.012]  9
3. CC(=O)N(C)c1nc(C(=O)C2=C(O)C(C)(C)C(=O)C(C)(C)C2=O)ccc1C(F)(F)F [Compound 2.088]  9
4. O=C1CCCC(O)=C1C(=O)c1ccc(C(F)(F)F)c(N2CCOCC2)n1 [Compound 1.073]  10

tested on: Chenopodium; assay: Pre-emergence herbicidal action (Example B1); format: in vivo; details: 250 g/ha, after 4 weeks, rating scale 10=total damage, 0=no action
Protocol: as §1

In order of falling “Pre-emergence action: Chenopodium” value:
1. O=C1CCCC(O)=C1C(=O)c1ccc(C(F)(F)F)c(N2CCOCC2)n1 [Compound 1.073]  10
2. CN(C)c1nc(C(=O)C2=C(O)C(C)(C)C(=O)C(C)(C)C2=O)ccc1C(F)(F)F [Compound 2.059]  9
3. CC(=O)N(C)c1nc(C(=O)C2=C(O)C(C)(C)C(=O)C(C)(C)C2=O)ccc1C(F)(F)F [Compound 2.088]  7
4. COC(COc1nc(C(=O)C2=C(O)CCCC2=O)ccc1C(F)(F)F)OC [Compound 1.012]  0

tested on: Scirpus; assay: Pre-emergence herbicidal action (Example B1); format: in vivo; details: 250 g/ha, after 4 weeks, rating scale 10=total damage, 0=no action
Protocol: as §1

In order of falling “Pre-emergence action: Scirpus” value:
1. COC(COc1nc(C(=O)C2=C(O)CCCC2=O)ccc1C(F)(F)F)OC [Compound 1.012]  7
2. CC(=O)N(C)c1nc(C(=O)C2=C(O)C(C)(C)C(=O)C(C)(C)C2=O)ccc1C(F)(F)F [Compound 2.088]  0

tested on: Abutilon; assay: Pre-emergence herbicidal action (Example B1); format: in vivo; details: 250 g/ha, after 4 weeks, rating scale 10=total damage, 0=no action
Protocol: as §1

In order of falling “Pre-emergence action: Abutilon” value:
1. COC(COc1nc(C(=O)C2=C(O)CCCC2=O)ccc1C(F)(F)F)OC [Compound 1.012]  10
2. O=C1CCCC(O)=C1C(=O)c1ccc(C(F)(F)F)c(N2CCOCC2)n1 [Compound 1.073]  10
3. CN(C)c1nc(C(=O)C2=C(O)C(C)(C)C(=O)C(C)(C)C2=O)ccc1C(F)(F)F [Compound 2.059]  10
4. CC(=O)N(C)c1nc(C(=O)C2=C(O)C(C)(C)C(=O)C(C)(C)C2=O)ccc1C(F)(F)F [Compound 2.088]  9

tested on: Amaranthus; assay: Pre-emergence herbicidal action (Example B1); format: in vivo; details: 250 g/ha, after 4 weeks, rating scale 10=total damage, 0=no action
Protocol: as §1

In order of falling “Pre-emergence action: Amaranthus” value:
1. CN(C)c1nc(C(=O)C2=C(O)C(C)(C)C(=O)C(C)(C)C2=O)ccc1C(F)(F)F [Compound 2.059]  7
2. O=C1CCCC(O)=C1C(=O)c1ccc(C(F)(F)F)c(N2CCOCC2)n1 [Compound 1.073]  6
3. COC(COc1nc(C(=O)C2=C(O)CCCC2=O)ccc1C(F)(F)F)OC [Compound 1.012]  5

tested on: Echinochloa; assay: Pre-emergence herbicidal action (Example B1); format: in vivo; details: 250 g/ha, after 4 weeks, rating scale 10=total damage, 0=no action
Protocol: as §1

In order of rising “Pre-emergence action: Echinochloa” value:
1. COC(COc1nc(C(=O)C2=C(O)CCCC2=O)ccc1C(F)(F)F)OC [Compound 1.012]  5
2. CC(=O)N(C)c1nc(C(=O)C2=C(O)C(C)(C)C(=O)C(C)(C)C2=O)ccc1C(F)(F)F [Compound 2.088]  7
3. CN(C)c1nc(C(=O)C2=C(O)C(C)(C)C(=O)C(C)(C)C2=O)ccc1C(F)(F)F [Compound 2.059]  8
4. O=C1CCCC(O)=C1C(=O)c1ccc(C(F)(F)F)c(N2CCOCC2)n1 [Compound 1.073]  10

tested on: Panicum; assay: Post-emergence herbicidal action (Example B2); format: in vivo; details: 250 g/ha, after about 18 days, rating scale 10=total damage, 0=no action
Source text: (§2) Monocotyledonous and dicotyledonous test plants are cultivated in a greenhouse in standard soil in plastic pots and, at the 4- to 6-leaf stage, are sprayed with an aqueous suspension of the test compounds of formula I prepared from a 25% wettable powder (Example F3, b) according to WO 97/34485) or with an emulsion of the test compounds of formula I prepared from a 25% emulsifiable concentrate (Example F1, c) according to WO 97/34485), corresponding to concentrations of 125 and 250 g of active ingredient per hectare (500 litres of water per ha). The test plants are then grown on in the greenhouse under optimum conditions. After a test duration of about 18 days, the test is evaluated in accordance with a scale of eleven ratings (10=total damage, 0=no action). Ratings of from 10 to 7 (especially from 10 to 8) indicate very good to good herbicidal action.

In order of falling “Post-emergence action: Panicum” value:
1. O=C1CCCC(O)=C1C(=O)c1ccc(C(F)(F)F)c(N2CCOCC2)n1 [Compound 1.073]  10
2. COC(COc1nc(C(=O)C2=C(O)CCCC2=O)ccc1C(F)(F)F)OC [Compound 1.012]  7
3. CN(C)c1nc(C(=O)C2=C(O)C(C)(C)C(=O)C(C)(C)C2=O)ccc1C(F)(F)F [Compound 2.059]  5

tested on: Chenopodium; assay: Post-emergence herbicidal action (Example B2); format: in vivo; details: 250 g/ha, after about 18 days, rating scale 10=total damage, 0=no action
Source text: as §2

In order of rising “Post-emergence action: Chenopodium” value:
1. COC(COc1nc(C(=O)C2=C(O)CCCC2=O)ccc1C(F)(F)F)OC [Compound 1.012]  8
2. O=C1CCCC(O)=C1C(=O)c1ccc(C(F)(F)F)c(N2CCOCC2)n1 [Compound 1.073]  8
3. CN(C)c1nc(C(=O)C2=C(O)C(C)(C)C(=O)C(C)(C)C2=O)ccc1C(F)(F)F [Compound 2.059]  10

tested on: Stellaria; assay: Post-emergence herbicidal action (Example B2); format: in vivo; details: 250 g/ha, after about 18 days, rating scale 10=total damage, 0=no action
Source text: as §2

In order of rising “Post-emergence action: Stellaria” value:
1. COC(COc1nc(C(=O)C2=C(O)CCCC2=O)ccc1C(F)(F)F)OC [Compound 1.012]  7
2. CN(C)c1nc(C(=O)C2=C(O)C(C)(C)C(=O)C(C)(C)C2=O)ccc1C(F)(F)F [Compound 2.059]  8
3. O=C1CCCC(O)=C1C(=O)c1ccc(C(F)(F)F)c(N2CCOCC2)n1 [Compound 1.073]  9

tested on: Amaranthus; assay: Post-emergence herbicidal action (Example B2); format: in vivo; details: 250 g/ha, after about 18 days, rating scale 10=total damage, 0=no action
Source text: as §2

In order of rising “Post-emergence action: Amaranthus” value:
1. CN(C)c1nc(C(=O)C2=C(O)C(C)(C)C(=O)C(C)(C)C2=O)ccc1C(F)(F)F [Compound 2.059]  7
2. COC(COc1nc(C(=O)C2=C(O)CCCC2=O)ccc1C(F)(F)F)OC [Compound 1.012]  9
3. O=C1CCCC(O)=C1C(=O)c1ccc(C(F)(F)F)c(N2CCOCC2)n1 [Compound 1.073]  10

tested on: Euphorbia; assay: Post-emergence herbicidal action (Example B2); format: in vivo; details: 250 g/ha, after about 18 days, rating scale 10=total damage, 0=no action
Source text: as §2

In order of rising “Post-emergence action: Euphorbia” value:
1. CN(C)c1nc(C(=O)C2=C(O)C(C)(C)C(=O)C(C)(C)C2=O)ccc1C(F)(F)F [Compound 2.059]  6
2. COC(COc1nc(C(=O)C2=C(O)CCCC2=O)ccc1C(F)(F)F)OC [Compound 1.012]  9
3. O=C1CCCC(O)=C1C(=O)c1ccc(C(F)(F)F)c(N2CCOCC2)n1 [Compound 1.073]  9

tested on: Echinochloa; assay: Post-emergence herbicidal action (Example B2); format: in vivo; details: 250 g/ha, after about 18 days, rating scale 10=total damage, 0=no action
Source text: as §2

In order of rising “Post-emergence action: Echinochloa” value:
1. COC(COc1nc(C(=O)C2=C(O)CCCC2=O)ccc1C(F)(F)F)OC [Compound 1.012]  8
2. CN(C)c1nc(C(=O)C2=C(O)C(C)(C)C(=O)C(C)(C)C2=O)ccc1C(F)(F)F [Compound 2.059]  8
3. O=C1CCCC(O)=C1C(=O)c1ccc(C(F)(F)F)c(N2CCOCC2)n1 [Compound 1.073]  9

tested on: Xanthium; assay: Post-emergence herbicidal action (Example B2); format: in vivo; details: 250 g/ha, after about 18 days, rating scale 10=total damage, 0=no action
Source text: as §2

In order of falling “Post-emergence action: Xanthium” value:
1. O=C1CCCC(O)=C1C(=O)c1ccc(C(F)(F)F)c(N2CCOCC2)n1 [Compound 1.073]  9
2. COC(COc1nc(C(=O)C2=C(O)CCCC2=O)ccc1C(F)(F)F)OC [Compound 1.012]  8
3. CN(C)c1nc(C(=O)C2=C(O)C(C)(C)C(=O)C(C)(C)C2=O)ccc1C(F)(F)F [Compound 2.059]  7
